Measured values taken from paper PMC11397024, “Strategic Fluorination to Achieve a Potent, Selective, Metabolically Stable, and Orally Bioavailable Inhibitor of CSNK2” (Molecules, 2024).

Tests used:
CSNK2A1 = molecular target: T1, CSNK2A1 (Homo sapiens, UniProt P68400); assay: NanoBRET assay CSNK2A1; format: cell-based; details: HEK293 cells, singlicate, read-out: CSNK2A1 pIC50 (converted)
T1 construct: expressed in transfected cells; host or cells: HEK293
Description: Assays were run using a modified version of the previously published protocols. […] A transfection complex of DNA (10 μg/mL) was generated consisting of 9 μg/mL carrier DNA (Promega, Madison, WI, USA) and 1 μg/mL CSNK2A-NLuc fusion DNA in Opti-MEM without serum (Gibco). FuGENE HD (Promega) was added at 30 μL/mL to form a lipid–DNA complex. The solution was then mixed and incubated at room temperature for 20 min. The transfection complex was mixed with a 20× volume of HEK293 cells in DMEM/FBS to arrive at a final concentration of 200,000 cells/mL, and 100 μL/well was added to a 96-well plate that was incubated overnight at 37 °C and 5% CO2. The following day, the medium was removed via aspiration and replaced with 85 μL of Opti-MEM without phenol red. A total of 5 μL per well of 20× NanoBRET Tracer K10 (Promega) at 10 μM for CSNK2A1 or 5 μM for CSNK2A2 in Tracer Dilution Buffer (Promega N291B) was added to all wells, except the “no tracer” control wells. Test compounds (10 mM in DMSO) were diluted 100× in Opti-MEM media to prepare stock solutions and evaluated at 11 concentrations. A total of 10 μL per well of the 10-fold test compound stock solutions (final assay concentration of 0.1% DMSO) were added. […] The plates were read within 30 min on a GloMax Discover luminometer (Promega) equipped with a 450 nm BP filter (donor) and 600 nm LP filter (acceptor) using 0.3 s of integration time. […]

SARS-CoV-2 = SARS-CoV-2 assay in A549-ACE2 cells; format: cell-based
[1] = CellTiter-Glo cytotoxicity assay; format: cell-based, Human; details: human, A549-ACE2 cells, 48 h, CellTiter-Glo, quadruplicate
Description: (§1) A549-ACE2 cells were maintained in low-glucose DMEM (Gibco, Waltham, MA, USA) supplemented with 10% FBS, 1% NEAA, and 1% L-glutamine. No antibiotics were used. Cells were plated at 2000 cells/well in a 384-well plate (Costar, Glendale, AZ, USA) and incubated overnight (37 °C, 5% CO2) before adding the compound. Compounds were added in quadruplicate and incubated for 48 h. DMSO percentage was constant across all concentrations of the compound. Cell viability was measured using CellTiter-Glo2 (Promega, Madison, WI, USA) and the luminescence signal was read on a GloMax plate reader (Promega, Madison, WI, USA). Dose–response analysis was performed using GraphPad Prism.

A549-ACE2 cells = assay: CellTiter-Glo cytotoxicity assay; format: cell-based, Human
Description: as §1

DAPK2 = molecular target: T2, DAPK2 (Homo sapiens, UniProt Q9UIK4); assay: NanoBRET dose-response DAPK2; format: cell-based; details: highest concentration tested 30 μM
T2 construct: expressed in transfected cells; host or cells: HEK293
T2 sequence (Q9UIK4 whole entry): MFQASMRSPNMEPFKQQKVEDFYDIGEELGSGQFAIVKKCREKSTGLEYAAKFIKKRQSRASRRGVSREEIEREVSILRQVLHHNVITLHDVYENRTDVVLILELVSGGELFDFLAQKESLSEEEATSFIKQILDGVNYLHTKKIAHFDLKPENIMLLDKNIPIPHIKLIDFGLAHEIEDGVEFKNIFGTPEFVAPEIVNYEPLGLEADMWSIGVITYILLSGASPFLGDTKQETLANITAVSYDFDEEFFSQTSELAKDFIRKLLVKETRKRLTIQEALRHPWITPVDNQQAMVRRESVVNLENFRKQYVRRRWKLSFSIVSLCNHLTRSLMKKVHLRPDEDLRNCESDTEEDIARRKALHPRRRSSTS

T1 sequence (P68400 whole entry): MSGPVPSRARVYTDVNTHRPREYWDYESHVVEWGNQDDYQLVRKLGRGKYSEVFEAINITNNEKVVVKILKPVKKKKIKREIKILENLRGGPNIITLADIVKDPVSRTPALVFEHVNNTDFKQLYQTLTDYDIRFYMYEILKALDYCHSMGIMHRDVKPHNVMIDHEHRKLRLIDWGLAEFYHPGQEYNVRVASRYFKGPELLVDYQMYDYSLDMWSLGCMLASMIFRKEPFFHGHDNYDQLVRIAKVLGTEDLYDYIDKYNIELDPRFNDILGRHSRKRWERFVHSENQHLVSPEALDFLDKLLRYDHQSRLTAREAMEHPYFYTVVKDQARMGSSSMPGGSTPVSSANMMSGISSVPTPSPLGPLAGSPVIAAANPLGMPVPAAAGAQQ

SMILES: CCC(=O)Nc1cc(Nc2cc(NC3CC3)n3ncc(C#N)c3n2)c(F)cc1N1CCC[C@H](NC)C1 [Compound 2, (S)-N-(5-((3-cyano-7-(cyclopropylamino)pyrazolo[1,5-a]pyrimidin-5-yl)amino)-4-fluoro-2-(3-(methylamino)piperidin-1-yl)phenyl)propionamide]
- IC50 (CSNK2A1): 0.00794 µM
- IC90 (SARS-CoV-2; Severe acute respiratory syndrome coronavirus 2): 2.2 µM
- IC50 (SARS-CoV-2; Severe acute respiratory syndrome coronavirus 2, triplicate, read-out: SARS-CoV-2 pIC50 (converted)): 0.316 µM
- viability at 48 h, 0.1 µM ([1]; 0.1 μM): 100%
- viability at 48 h, 1 µM ([1]; 1.0 μM): 76%
- cytotoxicity in A549-ACE2 cells (A549-ACE2 cells; 0.1 μM): no toxicity
- cytotoxicity in A549-ACE2 cells (A549-ACE2 cells; 1.0 μM): low toxicity
- IC50 (DAPK2): > 30 µM
